{"source": "ChEMBL document CHEMBL4402529", "about": "“Immunoproteasome-selective inhibitors: An overview of recent developments as potential drugs for hematologic malignancies and autoimmune diseases” (Eur J Med Chem, 2019)", "key": {"Homo sapiens [1]": {"organism": "Homo sapiens", "experiment": "Selectivity index, ratio of IC50 for 20S proteasome beta 1c (unknown origin) to IC50 for 20S proteasome beta 1i (unknown origin)"}, "Homo sapiens [2]": {"organism": "Homo sapiens", "experiment": "Selectivity index, ratio of IC50 for 20S proteasome beta 5c (unknown origin) to IC50 for 20S proteasome beta 5i (unknown origin)"}, "[3]": {"target": "T1, Proteasome subunit beta type-8 (Homo sapiens, UniProt P28062)", "T1 sequence (P28062 whole entry)": "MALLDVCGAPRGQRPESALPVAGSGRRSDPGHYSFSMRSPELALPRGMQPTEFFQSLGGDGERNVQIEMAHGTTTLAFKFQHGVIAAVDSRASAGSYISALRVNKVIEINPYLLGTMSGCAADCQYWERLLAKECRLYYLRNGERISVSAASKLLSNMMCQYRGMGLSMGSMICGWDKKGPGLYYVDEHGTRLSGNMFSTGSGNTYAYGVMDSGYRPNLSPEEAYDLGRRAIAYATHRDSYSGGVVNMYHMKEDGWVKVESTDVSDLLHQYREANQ", "experiment": "Inhibition of human 20S proteasome beta 5i"}, "Homo sapiens [4]": {"organism": "Homo sapiens", "experiment": "Selectivity index, ratio of IC50 for human 20S proteasome beta 5c to IC50 for human 20S proteasome beta 5i"}, "[5]": {"target": "T2, Proteasome subunit beta type-9 (Homo sapiens, UniProt P28065)", "T2 sequence (P28065 whole entry)": "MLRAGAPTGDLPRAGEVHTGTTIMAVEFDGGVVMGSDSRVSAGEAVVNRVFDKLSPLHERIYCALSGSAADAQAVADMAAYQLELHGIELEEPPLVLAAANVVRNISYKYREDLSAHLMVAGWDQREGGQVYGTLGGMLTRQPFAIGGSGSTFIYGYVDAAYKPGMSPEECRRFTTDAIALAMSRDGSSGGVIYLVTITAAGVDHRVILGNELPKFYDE", "experiment": "Inhibition of 20S proteasome beta 1i (unknown origin)"}, "[6]": {"experiment": "Inhibition of 20S proteasome beta 2c (unknown origin)"}, "[7]": {"target": "T3, Proteasome Macropain subunit MB1 (Homo sapiens, UniProt P28074)", "T3 sequence (P28074 whole entry)": "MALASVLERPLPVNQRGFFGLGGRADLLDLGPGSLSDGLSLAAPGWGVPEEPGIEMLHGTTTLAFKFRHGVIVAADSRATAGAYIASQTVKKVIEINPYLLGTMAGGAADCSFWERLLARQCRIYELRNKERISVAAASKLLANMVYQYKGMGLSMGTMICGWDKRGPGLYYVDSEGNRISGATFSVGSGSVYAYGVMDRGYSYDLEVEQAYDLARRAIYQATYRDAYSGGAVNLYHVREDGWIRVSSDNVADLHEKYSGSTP", "experiment": "Inhibition of human 20S proteasome beta 5c"}, "[8]": {"target": "T3, Proteasome Macropain subunit MB1", "experiment": "Inhibition of 20S proteasome beta 5c (unknown origin) after 1 hr by fluorescence based assay"}, "[9]": {"target": "T1, Proteasome subunit beta type-8", "experiment": "Inhibition of 20S proteasome beta 5i (unknown origin) after 1 hr by fluorescence based assay"}, "Homo sapiens [10]": {"organism": "Homo sapiens", "experiment": "Selectivity index, ratio of IC50 for 20S proteasome beta 2c (unknown origin) to IC50 for 20S proteasome beta 2i (unknown origin)"}, "[11]": {"target": "T1, Proteasome subunit beta type-8", "experiment": "Inhibition of 20S proteasome beta 5i (unknown origin) after 1 hr by cell based assay"}, "[12]": {"target": "T3, Proteasome Macropain subunit MB1", "experiment": "Inhibition of 20S proteasome beta 5c (unknown origin) after 1 hr by cell based assay"}, "[13]": {"target": "T2, Proteasome subunit beta type-9", "experiment": "Inhibition of 20S proteasome beta 1i (unknown origin) after 1 hr by fluorescence based assay"}, "[14]": {"target": "T4, Proteasome subunit beta type-10 (Homo sapiens, UniProt P40306)", "T4 sequence (P40306 whole entry)": "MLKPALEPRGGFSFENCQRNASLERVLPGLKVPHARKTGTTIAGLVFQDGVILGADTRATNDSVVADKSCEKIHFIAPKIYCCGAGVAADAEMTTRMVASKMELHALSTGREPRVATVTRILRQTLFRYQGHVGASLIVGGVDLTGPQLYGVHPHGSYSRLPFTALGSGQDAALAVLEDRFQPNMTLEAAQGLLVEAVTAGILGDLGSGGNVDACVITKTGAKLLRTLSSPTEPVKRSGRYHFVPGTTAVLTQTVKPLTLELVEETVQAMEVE", "experiment": "Inhibition of 20S proteasome beta 2i (unknown origin) after 1 hr by fluorescence based assay"}}}
{"smiles": "COc1ccc(C[C@H](NC(=O)[C@@H](C)NC(=O)[C@H]2CC[C@H](O)CC2)C(=O)N[C@@H](CC2=CCCC2)C(=O)[C@@]2(C)CO2)cc1", "values": [{"measurement": "Ratio IC50", "setting": "Homo sapiens [1]", "value": "> 14"}, {"measurement": "Ratio IC50", "setting": "Homo sapiens [2]", "value": 79}]}
{"smiles": "Cc1c(Cc2nsc(=O)o2)c(=O)oc2cc3occ(-c4ccccc4)c3cc12", "values": [{"measurement": "IC50", "setting": "[3]", "value": 120, "unit": "nM"}, {"measurement": "Ratio IC50", "setting": "Homo sapiens [4]", "value": "> 80"}]}
{"smiles": "CC(C)C[C@H](NC(=O)CN1CCCCCC1)C(=O)N[C@@H](Cc1ccccc1)C(=O)N[C@@H](Cc1ccccc1)C(=O)[C@@]1(C)CO1", "values": [{"measurement": "Ratio IC50", "setting": "Homo sapiens [1]", "value": "> 602"}, {"measurement": "Ratio IC50", "setting": "Homo sapiens [2]", "value": 0.8}, {"measurement": "IC50", "setting": "[5]", "value": 425, "unit": "nM"}, {"measurement": "IC50", "setting": "[6]", "value": 81, "unit": "nM"}]}
{"smiles": "Cc1c(CCC(=O)ON2C(=O)CCC2=O)c(=O)oc2cc3occ(-c4ccccc4)c3cc12", "values": [{"measurement": "IC50", "setting": "[3]", "value": 9, "unit": "nM"}, {"measurement": "IC50", "setting": "[7]", "value": 220, "unit": "nM"}, {"measurement": "Ratio IC50", "setting": "Homo sapiens [4]", "value": 24}]}
{"smiles": "COc1ccc([C@@H](O)[C@H](NC(=O)[C@H](C)NC(=O)CN2CCOCC2)C(=O)N[C@@H](CC2=CCCC2)C(=O)[C@@]2(C)CO2)cc1", "note": "[ZETOMIPZOMIB]", "values": [{"measurement": "IC50", "setting": "[8]", "value": 688, "unit": "nM"}, {"measurement": "IC50", "setting": "[9]", "value": 39, "unit": "nM"}, {"measurement": "Ratio IC50", "setting": "Homo sapiens [1]", "value": 0.97}, {"measurement": "Ratio IC50", "setting": "Homo sapiens [10]", "value": "> 80.9"}, {"measurement": "Ratio IC50", "setting": "Homo sapiens [2]", "value": 17.6}]}
{"smiles": "Cc1c(CCC(=O)O)c(=O)oc2cc3occ(-c4ccccc4)c3cc12", "values": [{"measurement": "IC50", "setting": "[3]", "value": 1600, "unit": "nM"}, {"measurement": "IC50", "setting": "[7]", "value": 172000, "unit": "nM"}, {"measurement": "Ratio IC50", "setting": "Homo sapiens [4]", "value": 108}]}
{"smiles": "C[C@@H](CC(=O)NCc1cccc2ccccc12)NC(=O)[C@H](CC(=O)NC(C)(C)C)NC(=O)CCc1ccccc1", "values": [{"measurement": "Ratio IC50", "setting": "Homo sapiens [2]", "value": 1330}, {"measurement": "IC50", "setting": "[11]", "value": 57, "unit": "nM"}, {"measurement": "IC50", "setting": "[12]", "value": 76000, "unit": "nM"}]}
{"smiles": "Cc1ccc(S(=O)(=O)N[C@H](CC(=O)N[C@@H](C)C(=O)NCc2cccc3ccccc23)CC(=O)NC(C)(C)C)cc1", "values": [{"measurement": "Ratio IC50", "setting": "Homo sapiens [2]", "value": 5600}, {"measurement": "IC50", "setting": "[11]", "value": 14, "unit": "nM"}, {"measurement": "IC50", "setting": "[12]", "value": 78200, "unit": "nM"}]}
{"smiles": "CC(C)C[C@H](NC(=O)[C@@H](NC(=O)c1cccc(-c2ccccc2)n1)[C@@H](C)O)B(O)O", "note": "[DELANZOMIB]", "values": [{"measurement": "IC50", "setting": "[13]", "value": "1 to 3", "unit": "nM"}, {"measurement": "IC50", "setting": "[14]", "value": "10 to 30", "unit": "nM"}, {"measurement": "IC50", "setting": "[8]", "value": "3 to 20", "unit": "nM"}, {"measurement": "IC50", "setting": "[9]", "value": "3 to 20", "unit": "nM"}]}
{"smiles": "Cc1ccc(S(=O)(=O)N[C@@H](CC(=O)NC(C)(C)C)C(=O)NCCNC(=O)c2cc(-c3ccccc3F)ccc2F)cc1", "values": [{"measurement": "Ratio IC50", "setting": "Homo sapiens [2]", "value": 28}]}
{"smiles": "Cc1ccc(S(=O)(=O)N[C@@H](CC(=O)NC(C)(C)C)C(=O)N[C@@H](C)CC(=O)NCc2cccc3ccccc23)cc1", "values": [{"measurement": "Ratio IC50", "setting": "Homo sapiens [2]", "value": 13600}, {"measurement": "IC50", "setting": "[11]", "value": 5.5, "unit": "nM"}, {"measurement": "IC50", "setting": "[12]", "value": 74900, "unit": "nM"}]}
{"smiles": "CC(C)(C)NC(=O)C[C@H](NS(=O)(=O)C1CC1)C(=O)NCCNC(=O)c1cc(-c2ccccc2F)ccc1F", "values": [{"measurement": "Ratio IC50", "setting": "Homo sapiens [2]", "value": 64}]}
{"smiles": "Cc1c(C2CCCC2)c(=O)oc2cc3occ(-c4ccccc4)c3cc12", "values": [{"measurement": "IC50", "setting": "[3]", "value": 13, "unit": "nM"}, {"measurement": "IC50", "setting": "[7]", "value": 1070, "unit": "nM"}, {"measurement": "Ratio IC50", "setting": "Homo sapiens [4]", "value": 83}]}
